Measurements taken from patent publication US20260226493A1, “HERBICIDE RESISTANT PLANTS” (SYNGENTA CROP PROTECTION AG, priority 2023, published 2026).

Key:
Assay in all cases: BIO3-BIO1 mutant enzyme activity in the presence of herbicide, percentage inhibition (fluorometric DAPA assay)
Format in all cases: biochemical
Conditions in all cases: read-out: percentage inhibition
[1] = target: T1, Arabidopsis thaliana BIO3-BIO1 (BioDA) mutants (Arabidopsis thaliana, UniProt B0F481, F348D)
T1 construct: with the predicted N-terminal mitochondrial transit peptide removed; 6xHis-tag (N); thrombin cleavage site (N); made in house; host or cells: E. coli BL21 (DE3) bioA
Excerpt: (§1) A pet-24 plasmid containing a DNA sequence encoding each identified variant mutant of BIO3-BIO1 derived from Arabidopsis thaliana from example 5 above, as shown in Table 13 below and as shown in full in SEQ ID NOs: 15 to 155, codon-optimised for expression in E. coli, with an N-terminal 6×His-tag and thrombin cleavage site and under control of a T7 promoter, and was synthesised by Twist Bioscience, in a similar manner to SEQ ID NO:311. These plasmids were then expressed in E. coli BL21 (DE3) bioA with 50 μg/mL kanamycin and 25 μg/mL chloramphenicol selection. Overnight cultures grown at 37° C. were used to inoculate 8×500 mL AIM in shake flasks at a ratio of 1:100. Cultures were grown at 37° C., 200 rpm for 3.5 hours and then overnight at 20° C. Cells were harvested by centrifugation for 30 minutes at 10 000 g. Cells were stored at −80° C. until extraction. 30 g of cell pellet from was thawed in 120 mL of IMAC buffer A (20 mM HEPES pH7.5, 25 mM imidazole, 500 mM sodium chloride, 0.15 mM pyridoxal phosphate, 0.5 mM TCEP, 1× complete Protease Inhibitor Tablet (Roche)). The resuspension was passed through a cell disrupter at 18 000 PSI and centrifuged at 50 000 g for 25 minutes at 4° C. The His-tagged BIO3-BIO1 protein was purified from the extract supernatant on an AKTA avant chromatography system (Cytiva) using a HisTrap FF column and eluted in IMAC buffer B ((20 mM HEPES pH7.5, 500 mM imidazole, 500 mM sodium chloride, 0.15 mM pyridoxal phosphate, 0.5 mM TCEP) followed by SEC using a HiLoad 26/60 Superdex200 column in SEC buffer (25 mM HEPES pH7.5, 150 mM sodium chloride, 0.15 mM pyridoxal phosphate, 0.5 mM TCEP). Protein concentration was measured and calculated using the absorbance at 280 nm. Extracts were diluted 1 in 4 and 10 uL was analysed by SDS PAGE.
(§2) To measure BIO3-BIO1 mutant enzyme activity in the presence of herbicide, herbicides were incubated with 20 μL of enzyme mix (100 mM EPPS pH 8.6, 0.1 mM pyridoxal phosphate, 0.1 mg/mL BSA, 50 nM BIO3-BIO1 enzyme) for 10 minutes at 20° C. in a well of a 96-well half-area black plate, followed by the addition of 20 μL of substrate mix (final concentration of 100 mM EPPS pH 8.6, 0.1 mM pyridoxal phosphate, 0.1 mg/mL BSA, 100 μM spermidine, 20 μM KAPA, 100 mM NaCO3) and further incubation for 75 minutes at 20° C. The reaction was terminated by the addition of 50 μL of derivatisation mix (final concentration of 250 mM borate NaOH pH 9.4, 3.6 mM o-phthalaldehyde, 7 mM β-mercaptoethanol, 17% (v/v) ethanol, 3.6% (v/v) methanol). The fluorescent product produced by the reaction of DAPA with o-phthalaldehyde and 7 mM β-mercaptoethanol was measured at 470 nm after excitation at 410 nm. The percentage inhibition was calculated as the activity in the presence of one of three concentrations of each herbicide compound A to M (note that the compounds labelled as A to M are identified hereinabove in the relevant section of the description) as a percentage of the activity in DMSO (Table 12 and 13). The percentage activity versus WT was also calculated and is shown in Table 13 and 14 (NT indicates mutation not tested in table 13, note that these mutations are tested at different compound concentrations for compounds L, M and C, and the results are shown in table 14).

[2] = target: T2, Arabidopsis thaliana BIO3-BIO1 (BioDA) mutants (Arabidopsis thaliana, UniProt B0F481, F348Q)
T2 construct: with the predicted N-terminal mitochondrial transit peptide removed; 6xHis-tag (N); thrombin cleavage site (N); made in house; host or cells: E. coli BL21 (DE3) bioA
Excerpt: as §1, §2

[3] = target: T3, Arabidopsis thaliana BIO3-BIO1 (BioDA) mutants (Arabidopsis thaliana, UniProt B0F481, G610H)
T3 construct: with the predicted N-terminal mitochondrial transit peptide removed; 6xHis-tag (N); thrombin cleavage site (N); made in house; host or cells: E. coli BL21 (DE3) bioA
Excerpt: as §1, §2

[4] = target: T4, Arabidopsis thaliana BIO3-BIO1 (BioDA) mutants (Arabidopsis thaliana, UniProt B0F481, G700A)
T4 construct: with the predicted N-terminal mitochondrial transit peptide removed; 6xHis-tag (N); thrombin cleavage site (N); made in house; host or cells: E. coli BL21 (DE3) bioA
Excerpt: as §1, §2

[5] = target: T5, Arabidopsis thaliana BIO3-BIO1 (BioDA) mutants (Arabidopsis thaliana, UniProt B0F481, Q517H)
T5 construct: with the predicted N-terminal mitochondrial transit peptide removed; 6xHis-tag (N); thrombin cleavage site (N); made in house; host or cells: E. coli BL21 (DE3) bioA
Excerpt: as §1, §2

[6] = target: T6, Arabidopsis thaliana BIO3-BIO1 (BioDA) mutants (Arabidopsis thaliana, UniProt B0F481, S509E)
T6 construct: with the predicted N-terminal mitochondrial transit peptide removed; 6xHis-tag (N); thrombin cleavage site (N); made in house; host or cells: E. coli BL21 (DE3) bioA
Excerpt: as §1, §2

[7] = target: T7, Arabidopsis thaliana BIO3-BIO1 (BioDA) mutants (Arabidopsis thaliana, UniProt B0F481, S509V)
T7 construct: with the predicted N-terminal mitochondrial transit peptide removed; 6xHis-tag (N); thrombin cleavage site (N); made in house; host or cells: E. coli BL21 (DE3) bioA
Excerpt: as §1, §2

[8] = target: T8, Arabidopsis thaliana BIO3-BIO1 (BioDA) mutants (Arabidopsis thaliana, UniProt B0F481, S509Y)
T8 construct: with the predicted N-terminal mitochondrial transit peptide removed; 6xHis-tag (N); thrombin cleavage site (N); made in house; host or cells: E. coli BL21 (DE3) bioA
Excerpt: as §1, §2

[9] = target: T9, Arabidopsis thaliana BIO3-BIO1 (BioDA) mutants (Arabidopsis thaliana, UniProt B0F481, T512W)
T9 construct: with the predicted N-terminal mitochondrial transit peptide removed; 6xHis-tag (N); thrombin cleavage site (N); made in house; host or cells: E. coli BL21 (DE3) bioA
Excerpt: as §1, §2

[10] = target: T10, Arabidopsis thaliana BIO3-BIO1 (BioDA) mutants (Arabidopsis thaliana, UniProt B0F481, W391M)
T10 construct: with the predicted N-terminal mitochondrial transit peptide removed; 6xHis-tag (N); thrombin cleavage site (N); made in house; host or cells: E. coli BL21 (DE3) bioA
Excerpt: as §1, §2

[11] = target: T11, Arabidopsis thaliana BIO3-BIO1 (BioDA) mutants (Arabidopsis thaliana, UniProt B0F481, Y511D)
T11 construct: with the predicted N-terminal mitochondrial transit peptide removed; 6xHis-tag (N); thrombin cleavage site (N); made in house; host or cells: E. coli BL21 (DE3) bioA
Excerpt: as §1, §2

[12] = target: T12, Arabidopsis thaliana BIO3-BIO1 (BioDA) mutants (Arabidopsis thaliana, UniProt B0F481, Y511V)
T12 construct: with the predicted N-terminal mitochondrial transit peptide removed; 6xHis-tag (N); thrombin cleavage site (N); made in house; host or cells: E. coli BL21 (DE3) bioA
Excerpt: as §1, §2

T3 sequence (B0F481 23-833 G610H): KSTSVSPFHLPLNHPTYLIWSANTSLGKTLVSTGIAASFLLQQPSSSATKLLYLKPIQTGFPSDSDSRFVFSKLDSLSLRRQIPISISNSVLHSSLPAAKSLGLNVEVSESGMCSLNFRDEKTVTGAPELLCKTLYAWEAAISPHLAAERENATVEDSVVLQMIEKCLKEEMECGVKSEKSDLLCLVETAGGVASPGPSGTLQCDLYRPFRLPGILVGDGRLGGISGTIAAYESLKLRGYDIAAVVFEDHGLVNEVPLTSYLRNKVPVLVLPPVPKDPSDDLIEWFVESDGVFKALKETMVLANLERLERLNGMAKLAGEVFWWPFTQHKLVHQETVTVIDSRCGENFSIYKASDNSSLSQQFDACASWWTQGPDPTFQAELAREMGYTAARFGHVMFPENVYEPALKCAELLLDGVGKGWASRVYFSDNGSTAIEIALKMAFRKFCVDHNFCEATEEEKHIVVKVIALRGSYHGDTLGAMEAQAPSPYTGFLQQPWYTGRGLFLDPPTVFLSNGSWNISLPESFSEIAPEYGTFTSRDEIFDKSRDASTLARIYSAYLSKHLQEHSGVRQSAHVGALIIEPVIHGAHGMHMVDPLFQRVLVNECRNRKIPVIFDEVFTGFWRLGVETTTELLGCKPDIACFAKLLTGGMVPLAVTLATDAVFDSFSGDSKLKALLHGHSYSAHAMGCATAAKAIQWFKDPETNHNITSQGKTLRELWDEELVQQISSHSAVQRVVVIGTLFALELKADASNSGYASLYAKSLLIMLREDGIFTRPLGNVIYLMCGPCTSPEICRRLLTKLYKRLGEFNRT
T4 sequence (B0F481 23-833 G700A): as the sequence (B0F481 23-833 G610H) above, with H588G, G678A counted along it
T12 sequence (B0F481 23-833 Y511V): as the sequence (B0F481 23-833 G610H) above, with Y489V, H588G counted along it
T8 sequence (B0F481 23-833 S509Y): as the sequence (B0F481 23-833 G610H) above, with S487Y, H588G counted along it
T1 sequence (B0F481 23-833 F348D): as the sequence (B0F481 23-833 G610H) above, with F326D, H588G counted along it
T9 sequence (B0F481 23-833 T512W): as the sequence (B0F481 23-833 G610H) above, with T490W, H588G counted along it
T5 sequence (B0F481 23-833 Q517H): as the sequence (B0F481 23-833 G610H) above, with Q495H, H588G counted along it
T10 sequence (B0F481 23-833 W391M): as the sequence (B0F481 23-833 G610H) above, with W369M, H588G counted along it
T2 sequence (B0F481 23-833 F348Q): as the sequence (B0F481 23-833 G610H) above, with F326Q, H588G counted along it
T11 sequence (B0F481 23-833 Y511D): as the sequence (B0F481 23-833 G610H) above, with Y489D, H588G counted along it
T6 sequence (B0F481 23-833 S509E): as the sequence (B0F481 23-833 G610H) above, with S487E, H588G counted along it
T7 sequence (B0F481 23-833 S509V): as the sequence (B0F481 23-833 G610H) above, with S487V, H588G counted along it

SMILES	inhibition at 0.2 µM [1]	inhibition at 1 µM [1]	inhibition at 5 µM [1]	inhibition at 0.2 µM [2]	inhibition at 1 µM [2]	inhibition at 5 µM [2]	inhibition at 0.2 µM [3]	inhibition at 1 µM [3]	inhibition at 5 µM [3]	inhibition at 0.2 µM [4]	inhibition at 1 µM [4]	inhibition at 5 µM [4]	inhibition at 1 µM [5]	inhibition at 1 µM [6]	inhibition at 1 µM [7]	inhibition at 1 µM [8]	inhibition at 1 µM [9]	inhibition at 1 µM [10]	inhibition at 1 µM [11]	inhibition at 1 µM [12]	other results
CCn1c(Cn2ccc(C(F)(F)F)n2)cc(=O)c(C(=O)O)c1-c1ccc(Cl)c(Cl)c1 [Compound L, 2-(3,4-dichlorophenyl)-1-ethyl-4-oxo-6-[[3-(trifluoromethyl)pyrazol-1-yl]methyl]pyridine-3-carboxylic acid]	–	–	–	–	–	–	–	–	–	–	–	–	–	–	–	–	–	–	–	–	inhibition at 0.01 µM [1]: 0%; inhibition at 0.075 µM [1]: 1%; inhibition at 0.5 µM [1]: 2%; inhibition at 0.01 µM [2]: 0%; inhibition at 0.075 µM [2]: 0%; inhibition at 0.5 µM [2]: 3%; inhibition at 0.01 µM [3]: 7%; inhibition at 0.075 µM [3]: 18%; inhibition at 0.5 µM [3]: 65%; inhibition at 0.01 µM [4]: 6%; inhibition at 0.075 µM [4]: 6%; inhibition at 0.5 µM [4]: 3%
CCn1c(C)c(-c2ccc(F)cc2F)c(=O)c(C(=O)O)c1-c1ccc(Cl)c(Cl)c1 [Compound C, 2-(3,4-dichlorophenyl)-5-(2,4-difluorophenyl)-1-ethyl-6-methyl-4-oxo-pyridine-3-carboxylic acid]	8%	13%	0%	3%	0%	25%	19%	58%	82%	4%	7%	28%	44%	87%	30%	76%	83%	24%	93%	94%	inhibition at 0.2 µM [5]: 11%; inhibition at 5 µM [5]: 77%; inhibition at 0.2 µM [6]: 57%; inhibition at 5 µM [6]: 97%; inhibition at 0.2 µM [7]: 17%; inhibition at 5 µM [7]: 94%; inhibition at 0.2 µM [8]: 37%; inhibition at 5 µM [8]: 95%; inhibition at 0.2 µM [9]: 50%; inhibition at 5 µM [9]: 95%; inhibition at 0.2 µM [10]: 39%; inhibition at 5 µM [10]: 63%; inhibition at 0.2 µM [11]: 68%; inhibition at 5 µM [11]: 99%; inhibition at 0.2 µM [12]: 28%; inhibition at 5 µM [12]: 97%
CCOC(=O)c1nn(-c2ccc3c(c2)OC(F)(F)C(F)(F)O3)c2cccc(C(C)=O)c2c1=O [Compound A, ethyl 5-acetyl-4-oxo-1-(2,2,3,3-tetrafluoro-1,4-benzodioxin-6-yl)cinnoline-3-carboxylate]	–	0%	–	–	7%	–	–	10%	–	–	0%	–	0%	6%	6%	3%	0%	85%	10%	45%	–
CCn1c(-c2ccc(Cl)c(Cl)c2)c(C(=O)O)c(=O)c2cc(F)ccc21 [Compound M, 2-(3,4-dichlorophenyl)-1-ethyl-6-fluoro-4-oxo-quinoline-3-carboxylic acid]	0%	2%	0%	0%	0%	16%	26%	59%	84%	7%	8%	6%	37%	73%	26%	58%	55%	37%	81%	88%	inhibition at 0.2 µM [5]: 6%; inhibition at 5 µM [5]: 71%; inhibition at 0.2 µM [6]: 40%; inhibition at 5 µM [6]: 93%; inhibition at 0.2 µM [7]: 22%; inhibition at 5 µM [7]: 88%; inhibition at 0.2 µM [8]: 28%; inhibition at 5 µM [8]: 85%; inhibition at 0.2 µM [9]: 33%; inhibition at 5 µM [9]: 83%; inhibition at 0.2 µM [10]: 27%; inhibition at 5 µM [10]: 84%; inhibition at 0.2 µM [11]: 38%; inhibition at 5 µM [11]: 96%; inhibition at 0.2 µM [12]: 33%; inhibition at 5 µM [12]: 99%
